Results: the OPERA property sets (Mansouri et al. 2018)

Conditions: for log10 biotransformation half-life (days) / log10 BCF: fish

SMILES | boiling point | melting point | other results
COC(=O)C(=O)Cl | 119 °C |  | 
CP(C)C | 37.5 °C | -85 °C | 
Clc1cc2c(Cl)cccc2c(Cl)c1Cl |  | 141 °C | log10 Koa: 8.29; log10 vapour pressure (mmHg): -4.96
OC(O)C(Cl)(Cl)Cl | 98 °C | 57 °C | log10 vapour pressure (mmHg): 1.18
O=[N+]([O-])c1cccc2c(Cl)cccc12 |  | 111 °C | 
CCCCCCCCOCCCCCCCC | 283 °C | -7.6 °C | ready biodegradability: readily biodegradable
Oc1ccc(Nc2ccc(O)cc2)cc1 |  | 174 °C | 
CCC(C)(C)C(C)(C)CC | 170 °C |  | 
CCc1cccc(C)c1C | 194 °C | -49.5 °C | log10 biodegradation half-life (days): 0.778; log10 vapour pressure (mmHg): -0.206
CC(C)NCC(O)COc1ccc(CCOCC2CC2)cc1 (stereo not drawn) |  | 71 °C | 
Cc1cc(O)cc(C)c1Cl | 246 °C | 115 °C | 
Cc1cc(C)c(C(=O)O)cc1C |  | 152 °C | 
C[C@]12CC[C@@H](O)C[C@@H]1CC[C@@H]1[C@@H]2[C@H](O)C[C@]2(C)C(=O)CC[C@@H]12 |  | 235 °C | 
C[C@]12CC[C@H](O)CC1=CC[C@@H]1[C@@H]2CC[C@]2(C)C(=O)CC[C@@H]12 |  | 140 °C | 
Cc1cc(C(=O)NNCc2ccccc2)no1 |  | 106 °C | 
CC1(C)[C@H](C=C(Cl)Cl)[C@H]1C(=O)OCc1c(F)c(F)cc(F)c1F |  | 32 °C | log10 vapour pressure (mmHg): -5.52
OCC1=CCN2CC[C@@H](O)[C@@H]12 |  | 120 °C | 
Cc1noc(NS(=O)(=O)c2ccc(N)cc2)c1C |  | 191 °C | 
O=C1CCc2cccc3c2N1CC3 |  | 112 °C | log10 vapour pressure (mmHg): -5.92
CNC1(c2ccccc2Cl)CCCCC1=O.Cl (stereo not drawn) |  | 262 °C | 
COc1ccc([C@@H]2Sc3ccccc3N(CCN(C)C)C(=O)[C@@H]2OC(C)=O)cc1 |  | 210 °C | 
C(#Cc1ccccc1)c1ccccc1 | 300 °C | 62.5 °C | log10 vapour pressure (mmHg): -2.64
CCOC(=O)C(C)C | 110 °C | -88.2 °C | log10 vapour pressure (mmHg): 1.4
CCCCCCC(=O)OCCC | 208 °C | -63.5 °C | 
CC[C@H]1OC(=O)[C@H](C)[C@@H](O[C@H]2C[C@@](C)(OC)[C@@H](O)[C@H](C)O2)[C@H](C)[C@@H](O[C@@H]2O[C@H](C)C[C@H](N(C)C)[C@H]2O)[C@](C)(O)C[C@@H](C)C(=O)[C@H](C)[C@@H](O)[C@]1(C)O |  | 191 °C | 

SMILES | boiling point | melting point | other results
CC(=O)OC(c1ccccc1)C(Cl)(Cl)Cl (stereo not drawn) |  | 87.5 °C | 
ON=C(C(=NO)c1ccccc1)c1ccccc1 |  | 240 °C | 
O=C(O)c1cc(-c2ccccc2)nc2ccccc12 |  | 214 °C | 
CC=C(C)C(C)C(C)=O (stereo not drawn) | 154 °C |  | 
CCCc1ccc(N)cc1 | 225 °C |  | 
C[C@@H]1O[C@@H](O[C@H]2CC[C@]3(C=O)[C@H]4CC[C@]5(C)[C@@H](C6=CC(=O)OC6)CC[C@]5(O)[C@@H]4CC[C@]3(O)C2)[C@H](O)[C@H](O)[C@H]1O |  | 238 °C | 
CCOC(=O)C(NC=O)C(=O)OCC |  | 48.5 °C | 
N#Cc1cc(I)c(O)c([N+](=O)[O-])c1 |  | 138 °C | 
CCCCCCC(O)CCCCCCCCCCC(=O)O (stereo not drawn) |  |  | ready biodegradability: readily biodegradable
CCOP(=O)(N=C1SCCS1)OCC |  | 41 °C | 
FC(F)(I)C(F)(F)C(F)(F)C(F)(F)I | 150 °C | -9 °C | 
ICc1ccccc1 |  | 24.5 °C | log10 vapour pressure (mmHg): -0.903
FC(F)(Br)C(F)(F)C(F)(F)C(F)(F)C(F)(F)C(F)(F)C(F)(F)Br | 159 °C |  | 
COc1ccc(N)cc1N | 221 °C | 67.5 °C | 
CCCCCCCCCCCCBr | 276 °C | -9.5 °C | log10 vapour pressure (mmHg): -2.41
CC(C)[C@@H](C)C(=O)O | 192 °C | -1.5 °C | 
CCCCCCCCCCCCCCCCOC(=O)CCCCCCCCCCCCC |  |  | ready biodegradability: readily biodegradable
NNc1ccc(Br)cc1 |  | 108 °C | 
ClCCC(Cl)(Cl)Cl | 157 °C |  | 
O=c1n(CC2CO2)c(=O)n(CC2CO2)c(=O)n1CC1CO1 (stereo not drawn) |  |  | ready biodegradability: not readily biodegradable
O=C(O)c1cccnc1 |  | 237 °C | ready biodegradability: readily biodegradable
COC(=O)C1=CCCN(C)C1 | 209 °C |  | log10 vapour pressure (mmHg): -1.1
N#CC(F)(F)F | -68.8 °C |  | 
c1cc2c(cc1O[C@H]1OC[C@H]3[C@@H]1CO[C@@H]3c1ccc3c(c1)OCO3)OCO2 |  | 93.5 °C | 
CCN=Cc1ccccc1 | 196 °C |  | 

SMILES | boiling point | melting point | other results
CC(C)OC(=O)COc1cc(Cl)c(Cl)cc1Cl |  | 45 °C | 
Cc1cccc(C)c1[N+](=O)[O-] | 226 °C | 15 °C | 
CC(=O)CCC(=O)OCC(C)C | 228 °C |  | 
OCC(CO)(CCl)CCl |  | 83 °C | 
CCC(C)(C)C(C)C(C)C (stereo not drawn) | 162 °C |  | 
C1CCC2CC2C1 (stereo not drawn) | 116 °C |  | log10 vapour pressure (mmHg): 1.36
NC(=O)c1cc([N+](=O)[O-])cc([N+](=O)[O-])c1 |  | 184 °C | log10 Koc (L/kg): 2.31
COc1ccc(C)cc1OC | 220 °C | 24 °C | 
CCCCCC(C)CCCC(C)C (stereo not drawn) |  |  | log10 biotransformation half-life (days): 1.02
CC(=O)Oc1ccc(-c2ccccc2)cc1 |  | 89 °C | 
CCCCCC=CC(C)C | 161 °C |  | 
CC12CCC(C1)C(C)(C)C2O (stereo not drawn) |  |  | log10 vapour pressure (mmHg): -1.2
Cc1cncc(C)n1 | 156 °C | 47.5 °C | 
CCOC(=O)n1ccn(C)c1=S |  | 124 °C | 
Cc1ccc2cc3ccccc3cc2c1 |  | 209 °C | log10 vapour pressure (mmHg): -5.27; log10 biotransformation half-life (days): -0.02
CCC1(N2CCCCC2)C(=O)NC(=O)NC1=O |  | 215 °C | 
C=CC(O)CCl (stereo not drawn) | 146 °C |  | 
CC(C)(N)C(=O)O |  | 335 °C | 
CC(=O)c1c(F)c(F)c(F)c(F)c1F |  | 130 °C | 
CCOC(=O)COc1cc(Cl)c(Cl)cc1Cl |  | 64 °C | 
CC(Oc1ccc(Oc2cnc3cc(Cl)ccc3n2)cc1)C(=O)OCC1CCCO1 (stereo not drawn) |  | 64 °C | 
CCC(C)(C)N | 77 °C | -105 °C | 
CCC(CC)C(=O)O | 194 °C | -31.8 °C | log10 vapour pressure (mmHg): -0.726; ready biodegradability: readily biodegradable
C=CCC1(CC(=C)Br)C(=O)NC(=O)NC1=O |  | 168 °C | 
CCCCC(=O)OCC(=O)[C@H]1[C@H](C)C[C@H]2[C@@H]3C[C@H](F)C4=CC(=O)C=C[C@]4(C)[C@@]3(F)[C@@H](O)C[C@@]21C |  | 195 °C | 

SMILES | boiling point | melting point | other results
CCOC(=O)C(Br)C(C)C (stereo not drawn) | 186 °C |  | 
CNCCN | 115 °C |  | 
CCCCCCCSCCCCCCC | 298 °C |  | 
CC(=O)c1ccc[nH]1 | 220 °C | 90 °C | 
CCC(CC)CC(C)C | 134 °C |  | 
Brc1ccc(Oc2cc(Br)c(Br)c(Br)c2)cc1Br |  |  | log10 BCF: 6.43
FC(F)(F)C(F)(F)C(F)(F)C(F)(F)C(F)(F)F | 29.2 °C | -100 °C | 
CC(C)(C)Cc1ccccc1 | 186 °C |  | 
Cc1ccc2c(c1)CCC(C)C2 (stereo not drawn) | 240 °C | 20 °C | 
CC(C)C12C=CC(C)(CC1)OO2 (stereo not drawn) |  | 3.3 °C | 
CCCCCC(=O)O | 205 °C | -3 °C | log10 Henry constant (atm·m³/mol): -6.12; log10 Koc (L/kg): 1.46; log10 vapour pressure (mmHg): -1.36; ready biodegradability: readily biodegradable
O=C1[C@@H]2C[C@H](CN3CCCC[C@@H]23)[C@H]2CCCCN12 |  | 111 °C | 
OCc1ccco1 | 171 °C | -14.6 °C | log10 vapour pressure (mmHg): -0.215; ready biodegradability: readily biodegradable
C[C@]12CC[C@H]3[C@@H](CCC4=C(Cl)C(=O)CC[C@@]43C)[C@@H]1CC[C@@H]2O |  | 189 °C | 
OCC(O)COc1ccccc1Cl (stereo not drawn) |  | 71.5 °C | 
CC(C)C1CCC(C)(O)CC1 (stereo not drawn) | 208 °C |  | 
ClCI | 109 °C |  | log10 Henry constant (atm·m³/mol): -3.06
O=Cc1cc(Cl)ccc1Cl | 232 °C | 58 °C | 
Brc1cc(Br)c(Br)c(Oc2c(Br)c(Br)c(Br)c(Br)c2Br)c1 |  |  | log10 BCF: 5.68
C[C@]12CC[C@H]3[C@@H](CCC4=CC(=O)CC[C@@]43C)[C@@H]1CC[C@@H]2C(=O)CO |  | 142 °C | 
Clc1cccc2cccc(Cl)c12 |  | 89 °C | log10 BCF: 3.79
CCc1cc(C(C)(C)C)c(O)c(C(C)(C)C)c1 | 272 °C | 44 °C | ready biodegradability: not readily biodegradable; log10 BCF: 3.46; log10 biotransformation half-life (days): 0.86
COc1ccc(-c2cc(=O)c3c(O)cc(O)cc3o2)cc1 |  | 263 °C | 
FC(F)(F)I | -22.5 °C |  | 
CCCCCCC(O)CCCC (stereo not drawn) | 229 °C | -3.5 °C | 

SMILES | boiling point | melting point | other results
CC(=O)OCC#N | 200 °C |  | 
C1CCc2nnnn2CC1 |  | 59.5 °C | 
C#CC | -23.2 °C | -103 °C | log10 vapour pressure (mmHg): 3.63
COc1ccc2c(c1)CC[C@@H]1[C@@H]2CC[C@]2(C)[C@@H](O)[C@H](O)C[C@@H]12 |  | 159 °C | 
Oc1ccc(Cl)c(O)c1 |  | 107 °C | ready biodegradability: not readily biodegradable
CCCCNC(C)=O | 229 °C |  | 
Cc1ccc2[nH]c(C)cc2c1 |  | 115 °C | 
C=CCC(C)C | 53.9 °C | -154 °C | log10 vapour pressure (mmHg): 2.43; ready biodegradability: not readily biodegradable
CN(C)CCC(O)(c1ccccc1)c1ccccc1Cl (stereo not drawn) |  | 120 °C | 
CN1CCN(C(c2ccccc2)c2ccccc2)CC1 |  | 106 °C | 
CC(=O)OCC(=O)[C@H]1CC[C@H]2[C@@H]3CC[C@H]4C[C@H](O)CC[C@]4(C)[C@H]3C(=O)C[C@]12C |  | 176 °C | 
Cc1cccc(C)c1N(C(=O)CCl)C1CCOC1=O (stereo not drawn) |  | 146 °C | log10 vapour pressure (mmHg): -6.82
CC1(C(=O)O)CCCCC1 | 234 °C | 37.5 °C | 
Cc1csc(C)c1 | 141 °C |  | 
CCCC(C)(CC)CC | 141 °C |  | 
OC[C@H]1O[C@@H](n2cnc3c2N=CNC[C@H]3O)C[C@@H]1O |  | 220 °C | 
C[Si](Cn1cncn1)(c1ccc(F)cc1)c1ccc(F)cc1 |  | 54 °C | log10 Koc (L/kg): 3.22
CCC(C(=O)O)C(=O)O |  | 114 °C | 
CCCCCCc1ccc2c(c1)CCC2 | 292 °C | -34 °C | 
O=C1CCCC(=O)C1 |  | 106 °C | 
C#CC(O)CCC (stereo not drawn) | 142 °C | -80 °C | 
CCC1(CC2(c3cccc(Cl)c3)CO2)C(=O)c2ccccc2C1=O (stereo not drawn) |  | 61 °C | log10 vapour pressure (mmHg): -7.7
CCc1ccco1 | 92 °C |  | 
CC(=NO)c1ccccc1 | 245 °C | 60 °C | 
